The text below walks through data of ChEMBL document CHEMBL1201862, “PubChem BioAssay data set” (2004).

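Step 1: Grow cells in 96-well plates. Step 2: Expose to compound for 48 hours at 5 concentrations. Step 3: Interpolate endpoints linearly; if unreached, use highest concentration. Here, GI50 denotes the concentration required for 50% inhibition of growth.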 Calls of active or inactive are those of the source. No stated cut-off is given here; in the data, active = GI50 up to about 1.1 µM and inactive = higher.

Among the test systems are 786-0; A498; COLO 205; HCC 2998; HCT-116; HCT-15; IGROV-1; K562; MOLT-4; NCI-H23; NCI-H522; OVCAR-4; RPMI-8226; SF-268; SF-539; SNB-19; UACC-257; HL-60.
Test in all cases: NCI anticancer screen, dose series, 48 h

Take `CCOc1ccc(NC(=O)C(=O)C(C(=O)c2ccc3ccccc3c2)C2OC(=O)c3ccccc32)cc1` (stereo not given): the GI50 with 786-0 was 6.47 µM (inactive); in the experiment on A498 it was 15.1 µM (inactive); with COLO 205 it was 19.1 µM (inactive); in the experiment on HCC 2998, 11.2 µM (inactive); with HCT-116 it was 15.7 µM (inactive); with HCT-15, 13.7 µM. The GI50 with IGROV-1 is 17.6 µM (inactive); in the experiment on K562, 20.5 µM (inactive); with MOLT-4, 4.57 µM (inactive); with NCI-H23, 11.7 µM (inactive); in the experiment on NCI-H522 it was 11.8 µM (inactive); with OVCAR-4 it was 12.5 µM (inactive). For the same compound, the GI50 with RPMI-8226 is 4.8 µM (inactive); with SF-268 it was 13.3 µM (inactive); in the experiment on SF-539, 7.31 µM (inactive); in the experiment on SNB-19, 9.62 µM (inactive); with UACC-257 it was 17 µM (inactive).

In the case of `COc1ccc(/C(=N/Nc2ccccc2)C(c2ccc(OC)cc2)C2OC(=O)c3ccccc32)cc1` (stereo not given), the GI50 with 786-0 was > 100 µM (inactive); with A498, > 100 µM (inactive); with COLO 205, > 100 µM (inactive); in the experiment with HCC 2998, > 100 µM (inactive); in the experiment with HCT-116, > 100 µM (inactive); in the experiment on HCT-15, > 100 µM. The GI50 in the experiment on IGROV-1 is 83.9 µM (inactive); in the experiment with K562, 31.8 µM (inactive); with MOLT-4 it was 25.6 µM (inactive); in the experiment on NCI-H522, 70.5 µM (inactive); in the experiment on OVCAR-4, > 100 µM (inactive); in the experiment on SF-268, 23.3 µM (inactive). The GI50 in the experiment on SF-539 is > 100 µM (inactive); in the experiment on SNB-19 it was > 100 µM (inactive); in the experiment with UACC-257, 76 µM (inactive).

For `COC(=O)c1cc(Cl)ccc1NC(=O)c1ccc([N+](=O)[O-])cc1`, the GI50 was 14.6 µM (inactive) with 786-0; 17.5 µM (inactive) in the experiment on A498; 29.2 µM (inactive) with HCC 2998; 4.78 µM (inactive) in the experiment on HCT-116; 32.2 µM with HCT-15; 27.4 µM (inactive) in the experiment with HL-60. Besides, the GI50 in the experiment on IGROV-1 is 19.8 µM (inactive); with K562, 26.9 µM (inactive); in the experiment with MOLT-4 it was 35.6 µM (inactive); in the experiment with NCI-H23, 18.8 µM (inactive); with OVCAR-4 it was 3.33 µM (inactive); in the experiment with RPMI-8226, 20.2 µM (inactive). For the same compound, the figures for the GI50 with SF-539 and in the experiment on UACC-257 were 20.4 µM (inactive) and 39.2 µM (inactive), respectively.

With `Nc1nc[n+](Cc2ccccc2CCO)c2[nH]cnc12`, the GI50 with 786-0 was > 100 µM (inactive); in the experiment on A498, > 100 µM (inactive); in the experiment with COLO 205, > 100 µM (inactive); in the experiment with HCT-15, > 100 µM; in the experiment with HL-60 it was > 100 µM (inactive); with IGROV-1 it was > 100 µM (inactive). The GI50 in the experiment with K562, in the experiment with MOLT-4, in the experiment with NCI-H23, with NCI-H522, with OVCAR-4 and with RPMI-8226 was > 100 µM (inactive) throughout. The GI50 with SF-268, with SF-539, with SNB-19 and in the experiment with UACC-257 was > 100 µM (inactive) each time.

Regarding `CCCN1CN(C(C(=O)N[C@@H]2C(=O)N3C(C(=O)O)=C(C)CSC23)c2ccc(O)cc2)CSC1=S` (stereo not given in full), the GI50 is > 100 µM (inactive) with 786-0; > 100 µM (inactive) in the experiment on A498; 55.6 µM (inactive) with COLO 205; > 100 µM (inactive) in the experiment with HCT-116; > 100 µM with HCT-15; 65.9 µM (inactive) in the experiment with HL-60. The GI50 in the experiment on IGROV-1 is > 100 µM (inactive); with K562, 80 µM (inactive); with MOLT-4, 57.3 µM (inactive); in the experiment with NCI-H23 it was > 100 µM (inactive); in the experiment on NCI-H522, 23.6 µM (inactive); in the experiment on OVCAR-4, > 100 µM (inactive). Further, the GI50 is 72.1 µM (inactive) with RPMI-8226; > 100 µM (inactive) in the experiment with SF-268; > 100 µM (inactive) in the experiment with SF-539; > 100 µM (inactive) with SNB-19; > 100 µM (inactive) with UACC-257.

In the case of `CNC(=O)C(C)Oc1ccc(OCC2CCCCC2)cc1` (stereo not given), the GI50 with 786-0 was > 100 µM (inactive); with A498, > 100 µM (inactive); with HCT-116, > 100 µM (inactive); in the experiment on HCT-15, > 100 µM; with HL-60, 34.4 µM (inactive); with IGROV-1, > 100 µM (inactive). Also, the GI50 was 65 µM (inactive) in the experiment on K562; > 100 µM (inactive) with MOLT-4; 35.6 µM (inactive) in the experiment on NCI-H23; 25.2 µM (inactive) in the experiment with NCI-H522; > 100 µM (inactive) in the experiment on OVCAR-4; > 100 µM (inactive) with SF-268. The GI50 was > 100 µM (inactive) in the experiment with SF-539, > 100 µM (inactive) with SNB-19 and 61.1 µM (inactive) in the experiment on UACC-257.

In the case of `CCC1(N=[N+]=[N-])C(=O)Nc2cc(C)ccc2C1=O` (stereo not given), the GI50 was > 100 µM (inactive) with 786-0; > 100 µM (inactive) in the experiment on A498; 69.3 µM (inactive) in the experiment with COLO 205; > 100 µM (inactive) in the experiment on HCC 2998; > 100 µM (inactive) in the experiment with HCT-116; 72.1 µM in the experiment on HCT-15. Further, the GI50 with HL-60 is 21.3 µM (inactive); in the experiment on IGROV-1 it was > 100 µM (inactive); in the experiment with K562, 47.5 µM (inactive); in the experiment on MOLT-4, 39.4 µM (inactive); in the experiment with NCI-H23, 70.1 µM (inactive); in the experiment on NCI-H522, 4.25 µM (inactive). Moreover, the GI50 in the experiment on OVCAR-4 is > 100 µM (inactive); in the experiment with SF-268 it was > 100 µM (inactive); with SF-539 it was > 100 µM (inactive); in the experiment with SNB-19 it was > 100 µM (inactive); with UACC-257, 96.4 µM (inactive).

On to `CC/C(=N/O)C(C)C(=O)CCC(=O)Nc1ccc(Cl)cc1` (stereo not given), for which the GI50 is > 100 µM (inactive) in the experiment on 786-0; > 100 µM (inactive) in the experiment with A498; > 100 µM (inactive) in the experiment with COLO 205; > 100 µM (inactive) in the experiment with HCC 2998; > 100 µM (inactive) in the experiment with HCT-116; 26.9 µM with HCT-15. Further, the GI50 in the experiment with HL-60 was > 100 µM (inactive); in the experiment with IGROV-1, > 100 µM (inactive); in the experiment with K562, 57.1 µM (inactive); in the experiment with MOLT-4, > 100 µM (inactive); in the experiment on NCI-H23, > 100 µM (inactive); with OVCAR-4 it was > 100 µM (inactive). The GI50 with RPMI-8226, with SF-268, in the experiment with SF-539, in the experiment with SNB-19 and with UACC-257 was > 100 µM (inactive) each time.

In the case of `COc1cccc2c1[C@]1(O)C(O)CCCC21` (stereo not given in full), the GI50 was > 100 µM (inactive) in the experiment on 786-0; > 100 µM (inactive) with A498; > 100 µM (inactive) in the experiment on COLO 205; > 100 µM (inactive) in the experiment on HCC 2998; > 100 µM (inactive) with HCT-116; > 100 µM with HCT-15. The GI50 with IGROV-1, in the experiment on K562, in the experiment with MOLT-4, in the experiment on NCI-H23, in the experiment with NCI-H522 and with OVCAR-4 was > 100 µM (inactive) in each case. Also, the GI50 in the experiment on RPMI-8226, in the experiment on SF-268, with SF-539, in the experiment on SNB-19 and in the experiment on UACC-257 was > 100 µM (inactive) in each case.
